These are literature values, as cited in patent US11098113B2, “Immunoglobulin single variable domains directed against macrophage migration inhibitory factor” (VIB VZW, priority 2016, dated 2021).

This data set deals with LPS stimulated RAW264.7 macrophages. The conditions noted are these: ISO-1 at 10 μM, same in vitro conditions; cited from earlier work.

In the case of `COC(=O)C[C@@H]1CC(c2ccc(O)cc2)=NO1` (racemic) [ISO-1, (S,R)-3-(4-hydroxyphenyl)-4,5-dihydro-5-isoxazole acetic acid methyl ester], the “inhibition of TNF production” value was “about 50%”.
